Assay results taken from patent publication US10766865B2, “PKM2 modulators and methods for their use” (TOLERO PHARMACEUTICALS, INC., priority 2012, dated 2020).
Like-named read-outs stand apart in the source and are kept apart here.

Molecular target: PKM2 (Homo sapiens, UniProt P14618)
Experiment: PKM2 Biochemical Assay
Conditions: for Max. Resp.: % maximum response in a biochemical assay as compared with Fructose 1,6-bisphosphate
Experimental: Full length, human PKM2 enzyme was obtained from Promab (Richmond, Calif.). All reagents, unless otherwise noted, were obtained from Sigma (St. Louis, Mo.).
Compounds were pre-incubated with 2 nM PKM2 in reaction buffer (50 mM Tris-HCl, pH 8.0, 200 mM KCl, 30 mM MgCl2, 2 mM DTT, 5% DMSO) for 30 min at ambient temperature. […] After 30 min, ATP formation was measured by Kinase Glo (Promega, Madison, Wis.), and AC50 values were determined using Prism (GraphPad Software, Inc., La Jolla, Calif.).

Sequence of PKM2 (P14618 whole entry): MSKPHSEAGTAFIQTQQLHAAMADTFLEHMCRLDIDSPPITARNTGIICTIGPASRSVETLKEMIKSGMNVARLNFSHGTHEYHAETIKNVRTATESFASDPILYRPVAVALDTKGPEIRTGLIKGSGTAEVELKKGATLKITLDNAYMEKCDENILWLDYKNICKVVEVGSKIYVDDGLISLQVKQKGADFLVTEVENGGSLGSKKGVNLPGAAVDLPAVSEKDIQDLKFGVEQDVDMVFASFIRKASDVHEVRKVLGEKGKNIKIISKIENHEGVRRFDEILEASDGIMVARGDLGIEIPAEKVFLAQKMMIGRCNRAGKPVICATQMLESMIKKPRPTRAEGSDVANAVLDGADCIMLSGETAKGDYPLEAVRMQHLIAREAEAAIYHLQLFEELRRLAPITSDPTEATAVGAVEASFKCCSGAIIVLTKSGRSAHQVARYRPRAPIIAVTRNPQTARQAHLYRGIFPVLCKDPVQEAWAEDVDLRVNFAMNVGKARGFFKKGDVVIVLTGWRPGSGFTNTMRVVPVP

Max. Resp.	SMILES	further results
98%	O=C(c1cc(Br)n[nH]1)N(CCC1CCS(=O)(=O)CC1)Cc1ccccc1F [Example 83]	–
73%	O=C(c1cc(C(F)(F)F)n[nH]1)N(CCC1CCSCC1)Cc1c(F)cccc1F [Example 84]	–
100%	O=C(c1cc(C(F)(F)F)n[nH]1)N(CCC1CCS(=O)(=O)CC1)Cc1c(F)cccc1F [Example 85]	–
98%	O=C(c1cc(C(F)(F)F)n[nH]1)N(CCC1CCSCC1)Cc1ccc(O)cc1F [Example 86]	–
100%	O=C(c1cc(C(F)(F)F)n[nH]1)N(CCC1CCS(=O)(=O)CC1)Cc1ccc(O)cc1F [Example 87]	–
96%	O=C(c1cc(C(F)(F)F)n[nH]1)N(CCC1CCS(=O)(=O)C1)Cc1ccccn1 (centres unmarked) [Example 88]	–
35%	O=C(c1cc(C(F)(F)F)n[nH]1)N(CCC1CCS(=O)(=O)C1)Cc1ccncc1 (centres unmarked) [Example 89]	–
24%	O=C(c1cc(C(F)(F)F)n[nH]1)N(CCC1CCS(=O)(=O)C1)Cc1cccnc1 (centres unmarked) [Example 90]	–
74%	O=C(c1cc(C(F)(F)F)n[nH]1)N(CCC1CCS(=O)(=O)C1)Cc1ncccc1Cl (centres unmarked) [Example 92]	–
26%	O=C(c1cc(C(F)(F)F)n[nH]1)N(CCC1CCS(=O)(=O)C1)Cc1cncs1 (centres unmarked) [Example 93]	–
69%	O=C(c1cc(C(F)(F)F)n[nH]1)N(CCC1CCS(=O)(=O)C1)Cc1cccc([N+](=O)[O-])c1Cl (centres unmarked) [Example 94, N-(2-chloro-3-nitrobenzyl)-N-(2-(1,1-dioxidotetrahydrothiophen-3-yl)ethyl)-3-(trifluoromethyl)-1H-pyrazole-5-carboxamide]	–
56%	O=C(c1cc(C(F)(F)F)n[nH]1)N(CCC1CCNCC1)Cc1ccccc1F [Example 98]	–
100%	CS(=O)(=O)N1CCC(CCN(Cc2ccccc2F)C(=O)c2cc(C(F)(F)F)n[nH]2)CC1 [Example 99]	–
29%	CN1CCC(CN(Cc2ccccc2F)C(=O)c2cc(C(F)(F)F)n[nH]2)CC1 [Example 100]	–
42%	CN1CCN(CCN(Cc2ccccc2F)C(=O)c2cc(C(F)(F)F)n[nH]2)CC1 [Example 103]	–
63%	CN1CCN(CCN(Cc2ccccc2Cl)C(=O)c2cc(C(F)(F)F)n[nH]2)CC1 [Example 104]	–
71%	CCN1CCC(CCN(Cc2c(Cl)cccc2Cl)C(=O)c2cc(C(F)(F)F)n[nH]2)CC1 [Example 105]	–
115%	CCN1CCN(CCN(Cc2ccccc2F)C(=O)c2cc(C(F)(F)F)n[nH]2)CC1 [Example 106]	–
85%	O=C(c1cc(C(F)(F)F)n[nH]1)N(CCN1CCS(=O)(=O)CC1)Cc1ccccc1Cl [Example 107]	–
92%	O=C(c1cc(C(F)(F)F)n[nH]1)N(CCN1CCS(=O)(=O)CC1)Cc1ccccc1F [Example 108]	–
94%	O=C(c1cc(C(F)(F)F)n[nH]1)N(CCN1CCS(=O)(=O)CC1)Cc1c(F)cccc1F [Example 109]	–
84%	O=C(c1cc(C(F)(F)F)n[nH]1)N(CCN1CCS(=O)(=O)CC1)Cc1c(Cl)cccc1Cl [Example 110]	–
64%	O=C(c1cc(C(F)(F)F)n[nH]1)N(CCN1CCS(=O)(=O)CC1)Cc1cccc(F)c1F [Example 111]	–
91%	Nc1cccc(CN(CCN2CCS(=O)(=O)CC2)C(=O)c2cc(C(F)(F)F)n[nH]2)c1 [Example 112]	–
104%	CC[C@](C)(N)C(=O)Oc1ccc(CN(CC2CCC2)C(=O)c2cc(Cl)n[nH]2)c(F)c1 [Example 115, (S)-4-((3-chloro-N-(cyclobutylmethyl)-1H-pyrazole-5-carboxamido)methyl)-3-fluorophenyl 2-amino-2-methylbutanoate]	–

Max. Resp.	SMILES	further results
100%	CN(C)Cc1c[nH]c2cccc(CN(CC3CCC3)C(=O)c3cc(Cl)n[nH]3)c12 [Example 118, 3-CHLORO-N-(CYCLOBUTYLMETHYL)-N-((3-((DIMETHYLAMINO)METHYL)-1H-INDOL-4-YL)METHYL)-1H-PYRAZOLE-5-CARBOXAMIDE]	–
100%	O=C(c1cc(Cl)n[nH]1)N(Cc1cccc2[nH]cnc12)CC1CCC1 [Example 119, N-((1H-benzo[d]imidazol-4-yl)methyl)-3-chloro-N-(cyclobutylmethyl)-1H-pyrazole-5-carboxamide]	–
100%	O=C(c1cc(Br)n[nH]1)N(Cc1cccc2[nH]cnc12)CC1CCC1 [Example 120, N-((1H-benzo[d]imidazol-4-yl)methyl)-3-bromo-N-(cyclobutylmethyl)-1H-pyrazole-5-carboxamide]	AC50 (read-out: PKM2 AC50, 2 nM PKM2, 75 μM ADP, 15 μM PEP, Kinase Glo): 1.33 µM
100%	O=C(c1cc(C(F)(F)F)n[nH]1)N(Cc1cccc2[nH]cnc12)CC1CCC1 [Example 123, N-((1H-benzo[d]imidazol-4-yl)methyl)-N-(cyclobutylmethyl)-3-(trifluoromethyl)-1H-pyrazole-5-carboxamide]	–
100%	O=C(c1cc(C(F)(F)F)n[nH]1)N(Cc1ccc(O)cc1Cl)CC1CCC1 [Example 124, N-(2-chloro-4-hydroxybenzyl)-N-(cyclobutylmethyl)-3-(trifluoromethyl)-1H-pyrazole-5-carboxamide]	–
100%	O=C(c1cc(Br)n[nH]1)N(Cc1ccc(O)cc1Cl)CC1CCC1 [Example 125, N-(2-chloro-4-hydroxybenzyl)-3-bromo-N-(cyclobutylmethyl)-1H-pyrazole-5-carboxamide]	–
100%	O=C(c1cc(C(F)(F)F)n[nH]1)N(Cc1ccccc1Cl)CC1CCC1 [Example 127, N-(2-chlorobenzyl)-N-(cyclobutylmethyl)-3-(trifluoromethyl)-1H-pyrazole-5-carboxamide]	–
75%	O=C(c1cc(C(F)(F)F)n[nH]1)N(Cc1ccncc1Cl)CC1CCC1 [Example 128, N-((3-chloropyridin-4-yl)methyl)-N-(cyclobutylmethyl)-3-(trifluoromethyl)-1H-pyrazole-5-carboxamide]	–
100%	O=C(c1cc(C(F)(F)F)n[nH]1)N(CCC(F)(F)F)Cc1ccc(O)cc1F [Example 130, N-(2-fluoro-4-hydroxybenzyl)-3-(trifluoromethyl)-N-(3,3, trifluoropropyl)-1H-pyrazole-5-carboxamide]	–
–	CC(C)(O)CCN(Cc1ccc(O)cc1F)C(=O)c1cc(C(F)(F)F)n[nH]1 [Example 131, N-(2-fluoro-4-hydroxybenzyl)-3-(trifluoromethyl)-N-(3-hydroxy-3-methylbutyl)-1H-pyrazole-5-carboxamide]	AC50: 23 µM
100%	O=C(c1cc(C(F)(F)F)n[nH]1)N(Cc1ccc(O)cc1F)C1CCCC1 [Example 132, N-(2-fluoro-4-hydroxybenzyl)-N-cyclopentyl-3-(trifluoromethyl)-1H-pyrazole-5-carboxamide]	–
100%	NCCN(Cc1ccc(O)cc1F)C(=O)c1cc(C(F)(F)F)n[nH]1 [Example 133, N-(2-fluoro-4-hydroxybenzyl)-N-(2-aminoethyl)-3-(trifluoromethyl)-1H-pyrazole-5-carboxamide]	–
100%	Nc1ccc(CN(CC2CCC2)C(=O)c2cc(C(F)(F)F)n[nH]2)c(Cl)c1 [Example 134, N-(4-amino-2-chlorobenzyl)-N-(cyclobutylmethyl)-3-(trifluoromethyl)-1H-pyrazole-5-carboxamide]	–
100%	O=C(c1cc(C(F)(F)F)n[nH]1)N(Cc1cccc2[nH]ccc12)NC1CCC1 [Example 135, N-((1H-INDOL-4-YL)METHYL)-N′-CYCLOBUTYL-3-(TRIFLUOROMETHYL)-1H-PYRAZOLE-5-CARBOHYDRAZIDE]	–
100%	O=C(c1cc(C(F)(F)F)n[nH]1)N(Cc1cccc(F)c1O)CC1CCC1 [Example 136, N-(3-fluoro-2-hydroxybenzyl)-N-(cyclobutylmethyl)-3-(trifluoromethyl)-1H-pyrazole-5-carboxamide]	–
70%	O=C(c1cc(C(F)(F)F)n[nH]1)N(CCO)Cc1ccc(O)cc1F [Example 137, N-(2-fluoro-4-hydroxybenzyl)-3-(trifluoromethyl)-N-(2-hydroxyethyl)-1H-pyrazole-5-carboxamide]	–
100%	O=C(c1cc(C(F)(F)F)n[nH]1)N(Cc1ccc(O)cc1F)C1CCCCC1 [Example 139, N-(2-fluoro-4-hydroxybenzyl)-N-cyclohexyl-3-(trifluoromethyl)-1H-pyrazole-5-carboxamide]	–
100%	O=C(c1cc(C(F)(F)F)n[nH]1)N(CCC1CC1)Cc1ccc(O)cc1F [Example 140, N-(2-fluoro-4-hydroxybenzyl)-N-(2-cyclopropylethyl)-3-(trifluoromethyl)-1H-pyrazole-5-carboxamide]	–
100%	O=C(c1cc(C(F)(F)F)n[nH]1)N(Cc1cccc(Cl)c1O)CC1CCC1 [Example 141, N-(3-chloro-2-hydroxybenzyl)-N-(cyclobutylmethyl)-3-(trifluoromethyl)-1H-pyrazole-5-carboxamide]	–
100%	COCCN(Cc1ccc(O)cc1F)C(=O)c1cc(C(F)(F)F)n[nH]1 [Example 142, N-(2-fluoro-4-hydroxybenzyl)-3-(trifluoromethyl)-N-(2-methoxyethyl)-1H-pyrazole-5-carboxamide]	–
100%	CCN(CC)CCN(Cc1ccc(O)cc1F)C(=O)c1cc(C(F)(F)F)n[nH]1 [Example 143, N-(2-fluoro-4-hydroxybenzyl)-N-(2-(diethylamino)ethyl)-3-(trifluoromethyl)-1H-pyrazole-5-carboxamide]	–
100%	CCN(CC)CCN(Cc1ccccc1F)C(=O)c1cc(C(F)(F)F)n[nH]1 [Example 148, N-(2-fluorobenzyl)-N-(2-(diethylamino)ethyl)-3-(trifluoromethyl)-1H-pyrazole-5-carboxamide]	–
100%	O=C(c1cc(C(F)(F)F)n[nH]1)N(CCC1CC1)Cc1ccccc1F [Example 149, N-(2-fluorobenzyl)-N-(2-cyclopropylethyl)-3-(trifluoromethyl)-1H-pyrazole-5-carboxamide]	–
68%	O=C(c1cc(C(F)(F)F)n[nH]1)N(Cc1ccccc1F)CC1CCOC1 (centres unmarked) [Example 150, N-(2-fluorobenzyl)-3-(trifluoromethyl)-N-((tetrahydrofuran-3-yl)methyl)-1H-pyrazole-5-carboxamide]	–
